How the values were obtained:
human 5-HT2A receptor = target: T1, human 5-HT2A receptor (Homo sapiens, UniProt P28223); experiment: 5-HT2A agonism, inositol monophosphate accumulation (HTRF), CHO-K1 recombinant cells; format: cell-based; conditions: 5-HT2A
T1 construct: expressed in transfected cells; host or cells: CHO-K1

human 5-HT2B receptor = target: T2, human 5-HT2B receptor (Homo sapiens, UniProt P41595); experiment: 5-HT2B agonism, inositol monophosphate accumulation (HTRF), CHO-K1 recombinant cells; format: cell-based; conditions: 5-HT2B
T2 construct: expressed in transfected cells; host or cells: CHO-K1
T2 sequence (P41595 whole entry): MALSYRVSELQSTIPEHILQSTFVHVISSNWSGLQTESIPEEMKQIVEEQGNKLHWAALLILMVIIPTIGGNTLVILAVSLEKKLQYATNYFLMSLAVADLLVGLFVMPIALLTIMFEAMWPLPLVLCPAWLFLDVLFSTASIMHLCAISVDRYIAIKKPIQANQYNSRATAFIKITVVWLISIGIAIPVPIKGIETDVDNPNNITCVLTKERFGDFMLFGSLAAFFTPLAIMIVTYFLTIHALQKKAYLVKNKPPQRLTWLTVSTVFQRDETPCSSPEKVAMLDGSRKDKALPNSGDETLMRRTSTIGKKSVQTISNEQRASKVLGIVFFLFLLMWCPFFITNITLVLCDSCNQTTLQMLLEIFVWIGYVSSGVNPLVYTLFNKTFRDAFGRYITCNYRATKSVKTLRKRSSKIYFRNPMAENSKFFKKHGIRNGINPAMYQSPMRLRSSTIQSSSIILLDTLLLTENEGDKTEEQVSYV

[1] = target: T3, human 5-HT2C (non-edited) receptor (Homo sapiens, UniProt P28335); experiment: 5-HT2C (non-edited) agonism, inositol monophosphate accumulation (HTRF), CHO-K1 recombinant cells; format: cell-based; conditions: 5-HT2C (non-edited); relative to α-Me-5-HT at its EC100
T3 construct: expressed in transfected cells; host or cells: CHO-K1
T3 sequence (P28335 33-458): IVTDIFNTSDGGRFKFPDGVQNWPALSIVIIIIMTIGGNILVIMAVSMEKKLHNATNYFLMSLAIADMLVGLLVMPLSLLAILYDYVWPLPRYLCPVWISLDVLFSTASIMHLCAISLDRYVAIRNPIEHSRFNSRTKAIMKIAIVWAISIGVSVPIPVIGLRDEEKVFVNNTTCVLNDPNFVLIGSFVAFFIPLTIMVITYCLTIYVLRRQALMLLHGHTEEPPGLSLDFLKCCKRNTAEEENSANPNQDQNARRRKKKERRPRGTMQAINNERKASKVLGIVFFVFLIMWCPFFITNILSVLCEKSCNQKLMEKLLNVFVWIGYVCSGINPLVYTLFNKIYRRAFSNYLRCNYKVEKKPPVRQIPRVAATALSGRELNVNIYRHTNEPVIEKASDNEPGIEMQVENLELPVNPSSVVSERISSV

[2] = target: T4, human 5-HT2C (edited) receptor (Homo sapiens, UniProt P28335); experiment: 5-HT2C (edited) agonism, inositol monophosphate accumulation (HTRF), CHO-K1 recombinant cells; format: cell-based; conditions: 5-HT2C (edited); relative to α-Me-5-HT at its EC100
T4 sequence (P28335 33-458): T3 sequence (P28335 33-458)

healthy volunteers [3] = conditions: published report (Hysek et al., 2014); cited from earlier work
male C57BL/6J mice = experiment: Mouse extinction of fear learning assay; format: in vivo; conditions: 7.8 mg/kg IP once, vs vehicle
Procedure: Extinction of fear learning in rodents is a useful assay to understand if compounds have the potential to enhance learning processes that may be involved in recovery from SAD and other stress and anxiety related disorders, due to its resemblance to exposure-based therapy in humans. […] Freezing behavior, an indicator of the fear response, was measured in the presence of the CS during the extinction training session (Day 1) and the day after (Day 2, Extinction Testing, in the absence of test article). Locomotor activity was measured during the initial 2-minute habituation period, prior to the presentation of the CS, on Days 1 and 2.

healthy volunteers [4] = conditions: racemic MDMA at 125 mg, comparison in FIG. 11; cited from earlier work
[5] = test system: rat embryonic cortical neurons; experiment: In vitro rat cortical neurite outgrowth; format: cell-based; conditions: 250 nM positive control, vs vehicle
Procedure: The experiment included a 0.1% sterile water vehicle negative control condition and a 250 nM donepezil positive control condition, and the number of neurites per neuron, total neurite length per neuron and branchpoints per neuron from n=12 wells per treatment were compared to the vehicle control condition.

[6] = Phase 1 clinical study, plasma pharmacokinetics; conditions: for AUC0-t / Cmax / t1/2: mean (SD); for Tmax: median (minimum, maximum)
[7] = Phase 1 clinical study, urine pharmacokinetics (urinalysis); format: in vivo, human
[8] = relative to α-Me-5-HT at its EC100
[9] = plasma analyte after oral 125 mg R(−)-MDMA, Day 9
[10] = plasma analyte after single oral 75 mg R(−)-MDMA, Day 1
[11] = plasma analyte after single oral 125 mg R(−)-MDMA, Day 1
[12] = plasma analyte after single oral 175 mg R(−)-MDMA, Day 1
[13] = plasma analyte after single oral 225 mg R(−)-MDMA, Day 1
[14] = urine analyte after EMP-01 125 mg, Day 9
[15] = urine analyte after single oral 75 mg R(−)-MDMA, Day 1
[16] = urine analyte after single oral 125 mg R(−)-MDMA, Day 1
[17] = urine analyte after single oral 175 mg R(−)-MDMA, Day 1
[18] = urine analyte after single oral 225 mg R(−)-MDMA, Day 1

T1 sequence (P28223 whole entry): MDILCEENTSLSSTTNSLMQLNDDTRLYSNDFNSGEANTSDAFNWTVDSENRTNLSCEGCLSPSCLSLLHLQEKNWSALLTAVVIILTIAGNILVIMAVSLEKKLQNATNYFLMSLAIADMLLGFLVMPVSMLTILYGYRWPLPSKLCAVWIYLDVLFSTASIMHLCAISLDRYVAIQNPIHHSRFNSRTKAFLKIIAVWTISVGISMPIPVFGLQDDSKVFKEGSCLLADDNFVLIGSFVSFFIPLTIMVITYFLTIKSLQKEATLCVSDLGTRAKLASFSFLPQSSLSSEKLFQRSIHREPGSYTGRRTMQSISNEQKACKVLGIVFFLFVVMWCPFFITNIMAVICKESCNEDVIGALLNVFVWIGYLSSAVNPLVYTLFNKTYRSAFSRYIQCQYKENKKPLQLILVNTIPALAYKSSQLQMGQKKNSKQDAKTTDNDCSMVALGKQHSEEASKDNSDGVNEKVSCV

In the case of `CNC(C)Cc1ccc2c(c1)OCO2` (racemic) [Racemic MDMA, 3,4-methylenedioxymethamphetamine, reference compound], the EC50 (human 5-HT2A receptor; CHO-K1, IP accumulation) is reported as 4730 nM, the “Efficacy (% of a-Me-5-HT response)” value (human 5-HT2A receptor; [8]) is reported as 68.4% and the EC50 (human 5-HT2B receptor; CHO-K1, IP accumulation) is reported as 194 nM. For the same molecule, the “Efficacy (% of a-Me-5-HT response)” value (human 5-HT2B receptor; [8]) was 91.2%, the “Efficacy (% of a-Me-5-HT response)” value [1] was 95.3% and the “Efficacy (% of a-Me-5-HT response)” value [2] was 97.7%. For the same molecule, the “reduction of bias to angry faces” value (healthy volunteers [3]) was 12.5%, the freezing behavior (male C57BL/6J mice; 30 min prior to extinction training) was “significantly reduced freezing behavior on Days 1 and 2” and the locomotor activity (male C57BL/6J mice) was “increased locomotor activity on Days 1 and 2”. The 11D-ASC response profile (healthy volunteers [4]) was “no visual hallucinations and little to no insight”.

In the case of `COc1cc2c(cc1OC)C(=O)C(CC1CCN(Cc3ccccc3)CC1)C2` (stereo not shown) [Donepezil, reference compound], the branchpoints per neuron [5] is reported as “significantly and robustly increased”, the “number of neurites per neuron” value [5] is reported as “significantly and robustly increased” and the “total neurite length per neuron” value [5] is reported as “significantly and robustly increased”.

With `C[C@@H](N)Cc1ccc2c(c1)OCO2` [R-MDA] the “time of peak of mean plasma concentration” value ([6]; metabolite after oral R(−)-MDMA) was “approximately 12 hours postdose”, the AUC0-t [6, 9] was 291.6730 (112.2988) h · ng/mL and the Cmax [6, 9] was 13.3733 (2.3199) ng/mL. The t1/2 [6, 9] was 143.1218 (145.7332) hr, the Tmax [6, 9] was 12.042 (12.00, 30.00) hr and the AUC0-t [6, 10] was 183.2765 (40.5712) h · ng/mL. For the same molecule, the Cmax [6, 10] was 7.6733 (1.6139) ng/mL, the t1/2 [6, 10] was 39.0473 (19.0557) hr and the Tmax [6, 10] was 12.000 (10.00, 12.00) hr. For the same molecule, the AUC0-t [6, 11] was 307.4702 (66.2889) h · ng/mL, the Cmax [6, 11] was 12.7950 (3.1122) ng/mL and the Tmax [6, 11] was 12.025 (12.00, 30.03) hr. The AUC0-t [6, 12] was 272.6761 (57.5614) h · ng/mL, the Cmax [6, 12] was 11.2820 (2.1914) ng/mL and the Tmax [6, 12] was 18.000 (12.00, 18.00) hr. The AUC0-t [6, 13] was 413.2388 (193.5541) h · ng/mL, the Tmax [6, 13] was 21.050 (18.00, 30.00) hr and the “Ae12-24, amount excreted at the 12-24 hour collection interval” value [7, 14] was 0.9794 (0.8552) mg. For the same molecule, the “CAe, cumulative amount of drug excreted” value [7, 14] was 0.9794 (0.8552) mg, the “CFe, cumulative fraction of drug excreted” value (“CFe, cumulative fraction” below) [7, 14] was 1.2746 (0.7265) % and the “CLr, renal clearance rate” value [7, 14] was 5.3793 (1.5400) L/h. The “Fe12-24, fraction of drug excreted at the 12-24 hour collection interval” value [7, 14] was 0.7835 (0.6842) %, the “Ae12-24, amount excreted at the 12-24 hour collection interval” value [7, 15] was 0.4622 (0.1101) mg and the “CAe, cumulative amount of drug excreted” value [7, 15] was 0.8510 (0.2149) mg. The “CFe, cumulative fraction” value [7, 15] was 1.1347 (0.2865) %, the “CLr, renal clearance rate” value [7, 15] was 4.6787 (0.8471) L/h and the “Fe12-24, fraction of drug excreted at the 12-24 hour collection interval” value [7, 15] was 0.6163 (0.1468) %. For the same molecule, the “Ae12-24, amount excreted at the 12-24 hour collection interval” value [7, 16] was 0.7850 (0.4299) mg, the “CAe, cumulative amount of drug excreted” value [7, 16] was 1.1628 (0.4509) mg and the “CFe, cumulative fraction” value [7, 16] was 0.9302 (0.3608) %. For the same molecule, the “CLr, renal clearance rate” value [7, 16] was 3.7173 (0.9547) L/h, the “Fe12-24, fraction of drug excreted at the 12-24 hour collection interval” value [7, 16] was 0.6280 (0.3440) % and the “Ae12-24, amount excreted at the 12-24 hour collection interval” value [7, 17] was 0.7076 (0.4510) mg. For the same molecule, the “CAe, cumulative amount of drug excreted” value [7, 17] was 1.4788 (0.8740) mg, the “CFe, cumulative fraction” value [7, 17] was 0.8450 (0.4995) % and the “CLr, renal clearance rate” value [7, 17] was 4.3945 (2.1019) L/h. For the same molecule, the “Fe12-24, fraction of drug excreted at the 12-24 hour collection interval” value [7, 17] was 0.4043 (0.2577) %, the “Ae12-24, amount excreted at the 12-24 hour collection interval” value [7, 18] was 0.8450 (0.4995) mg and the “CAe, cumulative amount of drug excreted” value [7, 18] was 1.9805 (0.8173) mg. For the same molecule, the “CFe, cumulative fraction” value [7, 18] was 0.5432 (0.2708) %, the “CLr, renal clearance rate” value [7, 18] was 5.1337 (2.2871) L/h and the “Fe12-24, fraction of drug excreted at the 12-24 hour collection interval” value [7, 18] was 0.8802 (0.3633) %.
